This is an account of results in US9359383B2, “β-ketoimine ligand, method of preparing the same, metal complex comprising the same and method of forming thin film using the same” (SAMSUNG ELECTRONICS CO., LTD., priority 2011, dated 2016).

The nature of data set [1]: Purification by distillation under reduced pressure (thermal stability). The note with it: distillation at 30-50 Pa and 200-220° C. It counts as physicochemical. On the procedure:
Strontium complex compounds of Comparative Examples 1 to 8 were prepared using the β-ketoimine ligands, obtained in Synthesis Examples 4 to 11, in the same manner as Example 1. Purification of the strontium complex compounds of Comparative Examples 3, 4, 5, 6 and 8, which could be distilled, was carried out at a pressure of 30-50 Pa and a temperature of 200˜220° C. […] The strontium complex compounds of Comparative Examples 1 to 8 were analyzed in the same manner as Examples 1 to 3, thereby determining the chemical structures thereof.

Data set [2] can be described thus: Evaluation of solubility in organic solvent (Test Example 2). In kind it is physicochemical. The note with it: 0.1-0.7 mol added to 1000 ml solvent, sealed, stood 24 hours, visual observation. On the procedure: For the strontium complex compounds of Examples 1 to 3 and Comparative Examples 2 to 8, the solubilities of the complex compounds in ethyl cyclohexane, diethyl glycol dimethyl ether and toluene were evaluated. The evaluation was performed by adding 0.1-0.7 mol of each of the strontium complex compounds to 1000 ml of each of the organic solvents, sealing the mixtures, allowing the mixtures to stand for 24 hours, and visually observing whether a solid occurred in the mixtures. […] In Table 3, the case in which the complex compound was dissolved at a concentration of less than 0.1 mol was indicated as “x”.

Data set [3] can be described thus: Thermal stability by TGA (Test Example 3). It counts as physicochemical. The conditions noted are these: dry argon 100 ml/min, heating rate 10° C./min, sample 7-12 mg. On the procedure:
(§1) The strontium complex compounds of Examples 1 to 3 and Comparative Examples 5 to 8 were measured for thermal stability by TGA and DSC. The TGA measurement was carried out under the following conditions: dry argon flow rate: 100 ml/min; heating rate: 10° C./min; and a sample amount of 7-12 mg. The DSC measurement was carried out by injecting a sample into a closed metal container in a glove box in a dry argon atmosphere and heating the sample container at a rate of 10° C./min, in which the amount of the sample was 1-4 mg. In the TGA measurement, sampling and measurement were carried out in the glove box in the dry argon atmosphere.

Data set [4] in a line: Thermal stability by DSC (Test Example 3). It counts as physicochemical. The note with it: closed metal container, dry argon, heating rate 10° C./min, sample 1-4 mg. On the procedure:
as §1
In general terms: In DSC, transitions show as peaks or steps in heat flow.

In the case of `COCC[N+]1=C(C)C=C(C(C)(C)C)[O][Sr-2]12[O]C(C(C)(C)C)=CC(C)=[N+]2CCOC` [Comparative Example 1], the “thermal stability (could not be purified by distillation)” value in data set [1] is listed as “low thermal stability”.
Consider `CC1=[N+](CCN(C)C)[Sr-2]2([O]C(C(C)(C)C)=C1)[O]C(C(C)(C)C)=CC(C)=[N+]2CCN(C)C` [Comparative Example 2], for which, in data set [2], the “concentration of the strontium complex compound in the transparent liquid in which no solid was present, Diethylene glycol dimethyl ether” value was 0.3 mol; the “concentration of the strontium complex compound in the transparent liquid in which no solid was present, Ethyl cyclohexane” value is on record as “X (the case in which the complex compound was dissolved at a concentration of less than 0.1 mol was indicated as “x”)”; the “concentration of the strontium complex compound in the transparent liquid in which no solid was present, Toluene” value is 0.3 mol. For the same compound, the “thermal stability (could not be purified by distillation)” value in data set [1] is “low thermal stability”.
In the case of `CC(C)C1=[N+](C(C)CN(C)C)[Sr-2]2([O]C(C(C)(C)C)=C1)[O]C(C(C)(C)C)=CC(C(C)C)=[N+]2C(C)CN(C)C` (stereo not drawn) [Comparative Example 4], in data set [2], the “concentration of the strontium complex compound in the transparent liquid in which no solid was present, Diethylene glycol dimethyl ether” value is listed as 0.4 mol; the “concentration of the strontium complex compound in the transparent liquid in which no solid was present, Ethyl cyclohexane” value came out at 0.3 mol; the “concentration of the strontium complex compound in the transparent liquid in which no solid was present, Toluene” value was determined as 0.7 mol.
In the case of `COCCCC1=[N+](CCCN(C)C)[Sr-2]2([O]C(C(C)(C)C)=C1)[O]C(C(C)(C)C)=CC(CCCOC)=[N+]2CCCN(C)C` [Comparative Example 5], in data set [2], the “concentration of the strontium complex compound in the transparent liquid in which no solid was present, Diethylene glycol dimethyl ether” value stood at 0.4 mol; the “concentration of the strontium complex compound in the transparent liquid in which no solid was present, Ethyl cyclohexane” value is given as “X (the case in which the complex compound was dissolved at a concentration of less than 0.1 mol was indicated as “x”)”; the “concentration of the strontium complex compound in the transparent liquid in which no solid was present, Toluene” value was found to be 0.1 mol. In data set [3], the “Remaining amount (wt % at 400 ° C.)” value stood at 26.2 wt %. The “Decomposition peak top temperature (° C.)” value in data set [4] came to 336.8 °C.
For the compound `COCC(C)[N+]1=C(C(C)C)C=C(C(C)(C)COC)[O][Sr-2]12[O]C(C(C)(C)COC)=CC(C(C)C)=[N+]2C(C)COC` (stereo not drawn) [Comparative Example 6], in data set [2], the “concentration of the strontium complex compound in the transparent liquid in which no solid was present, Diethylene glycol dimethyl ether” value is 0.4 mol; the “concentration of the strontium complex compound in the transparent liquid in which no solid was present, Ethyl cyclohexane” value came to 0.5 mol; the “concentration of the strontium complex compound in the transparent liquid in which no solid was present, Toluene” value is listed as 0.4 mol. Besides, the “Remaining amount (wt % at 400 ° C.)” value in data set [3] turned out to be 3.7 wt %. The “Decomposition peak top temperature (° C.)” value in data set [4] was 363.0 °C.
Turning to `COCC(C)(C)C1=CC(C(C)C)=[N+](CCN(C)C)[Sr-2]2([O]1)[O]C(C(C)(C)COC)=CC(C(C)C)=[N+]2CCN(C)C` [Comparative Example 7], in data set [2], the “concentration of the strontium complex compound in the transparent liquid in which no solid was present, Diethylene glycol dimethyl ether” value came to 0.2 mol; the “concentration of the strontium complex compound in the transparent liquid in which no solid was present, Ethyl cyclohexane” value is reported as 0.3 mol; the “concentration of the strontium complex compound in the transparent liquid in which no solid was present, Toluene” value was 0.3 mol. Also, in data set [1], the “thermal stability (could not be purified by distillation)” value is listed as “low thermal stability”. Moreover, in data set [3], the “Remaining amount (wt % at 400 ° C.)” value is on record as 10.2 wt %. Moreover, the “Decomposition peak top temperature (° C.)” value in data set [4] was found to be 337.5 °C.
Take `COCCC(C)(C)C1=CC(C(C)C)=[N+](C(C)CN(C)C)[Sr-2]2([O]1)[O]C(C(C)(C)CCOC)=CC(C(C)C)=[N+]2C(C)CN(C)C` (stereo not drawn) [Comparative Example 8]: in data set [2], the “concentration of the strontium complex compound in the transparent liquid in which no solid was present, Diethylene glycol dimethyl ether” value is reported as “X (the case in which the complex compound was dissolved at a concentration of less than 0.1 mol was indicated as “x”)”; the “concentration of the strontium complex compound in the transparent liquid in which no solid was present, Ethyl cyclohexane” value is “X (the case in which the complex compound was dissolved at a concentration of less than 0.1 mol was indicated as “x”)”; the “concentration of the strontium complex compound in the transparent liquid in which no solid was present, Toluene” value was determined as 0.1 mol. Also, in data set [3], the “Remaining amount (wt % at 400 ° C.)” value came out at 3.97 wt %. The “Decomposition peak top temperature (° C.)” value in data set [4] was 368.2 °C.
One may read the melting point as the temperature, or range, at which the solid turns liquid. In turn, `COCC(C)(C)C1=[O+][Sr-4]234([O+]=C(C(C)(C)COC)C=C(C(C)C)[N]2C(C)C[N+]3(C)C)[N](C(C(C)C)=C1)C(C)C[N+]4(C)C` (stereo not drawn) [Example 1] gave a melting point of 140 to 141 °C. In data set [2], the “concentration of the strontium complex compound in the transparent liquid in which no solid was present, Diethylene glycol dimethyl ether” value was determined as 0.7 mol; the “concentration of the strontium complex compound in the transparent liquid in which no solid was present, Ethyl cyclohexane” value turned out to be 0.7 mol; the “concentration of the strontium complex compound in the transparent liquid in which no solid was present, Toluene” value is 0.7 mol. Moreover, the “Remaining amount (wt % at 400 ° C.)” value in data set [3] is 0.61 wt %. Further, the “Decomposition peak top temperature (° C.)” value in data set [4] worked out at 382.4 °C.
Take `CCOCC(C)(C)C(=O)C=C(C(C)C)[N]([Sr][N](C(=CC(=O)C(C)(C)COCC)C(C)C)C(C)CN(C)C)C(C)CN(C)C` (stereo not drawn) [Example 2]: in data set [2], the “concentration of the strontium complex compound in the transparent liquid in which no solid was present, Diethylene glycol dimethyl ether” value was 0.7 mol; the “concentration of the strontium complex compound in the transparent liquid in which no solid was present, Ethyl cyclohexane” value worked out at 0.6 mol; the “concentration of the strontium complex compound in the transparent liquid in which no solid was present, Toluene” value is 0.7 mol. The “Remaining amount (wt % at 400 ° C.)” value in data set [3] is 1.40 wt %. Further, the “Decomposition peak top temperature (° C.)” value in data set [4] came out at 360.7 °C.
Take `CCC(C)C(=CC(=O)C(C)(C)COC)[N]([Sr][N](C(=CC(=O)C(C)(C)COC)C(C)CC)C(C)CN(C)C)C(C)CN(C)C` (stereo not drawn) [Example 3]: in data set [2], the “concentration of the strontium complex compound in the transparent liquid in which no solid was present, Diethylene glycol dimethyl ether” value is on record as 0.7 mol; the “concentration of the strontium complex compound in the transparent liquid in which no solid was present, Ethyl cyclohexane” value worked out at 0.7 mol; the “concentration of the strontium complex compound in the transparent liquid in which no solid was present, Toluene” value is reported as 0.7 mol. Also, the “Remaining amount (wt % at 400 ° C.)” value in data set [3] stood at 0.87 wt %. Also, in data set [4], the “Decomposition peak top temperature (° C.)” value turned out to be 393.2 °C.
